What was measured:
[1] = test system: HaCaT (immortalized human keratinocytes); experiment: Cytotoxicity, MTT assay; format: cell-based; settings: normal cells, 72 h, mean SD
Procedure: (§1) MTT assay was performed as previously described. Experiments were repeated three times. […] Decreased relative MTT level means decreased cell viability.

S. epidermidis 423 = experiment: MIC, hospital methicillin-resistant strains (MRSE); settings: hospital MRSE strain S. epidermidis 423
S. aureus 572 = experiment: MIC, hospital methicillin-resistant strains (MRSA); settings: hospital MRSA strain S. aureus 572
S. aureus 585 = experiment: MIC, hospital methicillin-resistant strains (MRSA); settings: hospital MRSA strain S. aureus 585
S. epidermidis 437 = experiment: MIC, hospital methicillin-resistant strains (MRSE); settings: hospital MRSE strain S. epidermidis 437
S. epidermidis 515 = experiment: MIC, hospital methicillin-resistant strains (MRSE); settings: hospital MRSE strain S. epidermidis 515
M. tuberculosis H37Rv = experiment: Tuberculostatic activity, Microplate Alamar Blue Assay (MABA); format: cell-based, Mycobacterium tuberculosis; settings: M. tuberculosis H37Rv, standard strain, MABA
S. aureus 537 = experiment: MIC, hospital methicillin-resistant strains (MRSA); settings: hospital MRSA strain S. aureus 537
S. epidermidis 511 = experiment: MIC, hospital methicillin-resistant strains (MRSE); settings: hospital MRSE strain S. epidermidis 511
S. aureus ATCC 29213 = experiment: MIC, twofold serial microdilution, standard strains; settings: S. aureus ATCC 29213, standard strain
S. aureus 573 = experiment: MIC, hospital methicillin-resistant strains (MRSA); settings: hospital MRSA strain S. aureus 573
[2] = test system: M. tuberculosis Spec. 192; experiment: Tuberculostatic activity, Microplate Alamar Blue Assay (MABA); format: cell-based, Mycobacterium tuberculosis; settings: M. tuberculosis Spec. 192, patient isolate fully sensitive to tuberculostatics, MABA
S. aureus 567 = experiment: MIC, hospital methicillin-resistant strains (MRSA); settings: hospital MRSA strain S. aureus 567
S. epidermidis 513 = experiment: MIC, hospital methicillin-resistant strains (MRSE); settings: hospital MRSE strain S. epidermidis 513
S. aureus 522 = experiment: MIC, hospital methicillin-resistant strains (MRSA); settings: hospital MRSA strain S. aureus 522
S. epidermidis 424 = experiment: MIC, hospital methicillin-resistant strains (MRSE); settings: hospital MRSE strain S. epidermidis 424
S. epidermidis 433 = experiment: MIC, hospital methicillin-resistant strains (MRSE); settings: hospital MRSE strain S. epidermidis 433
E. coli ATCC 25922 = experiment: MIC, twofold serial microdilution, standard strains; settings: E. coli ATCC 25922, standard strain
staphylococcal isolates = experiment: MIC, standard staphylococcal strains; settings: text summary of Table 4
S. epidermidis 469 = experiment: MIC, hospital methicillin-resistant strains (MRSE); settings: hospital MRSE strain S. epidermidis 469
S. epidermidis 438 = experiment: MIC, hospital methicillin-resistant strains (MRSE); settings: hospital MRSE strain S. epidermidis 438
S. aureus 481 = experiment: MIC, hospital methicillin-resistant strains (MRSA); settings: hospital MRSA strain S. aureus 481
[3] = target: T1, S. aureus topoisomerase IV (Staphylococcus aureus, UniProt P0C1S7+P0C1U9); experiment: S. aureus topoisomerase IV decatenation assay; format: biochemical; settings: kDNA decatenation, 30 min at 37 °C
T1 construct: purchased Inspiralis, Norwich, UK
Procedure: The assay was performed using a S. aureus topoisomerase IV decantation kit (Inspiralis, Norwich, UK). Kinetoplast DNA (kDNA) was the substrate for topoisomerase IV. Firstly, 1 U of topoisomerase IV decatenated 200 ng of kDNA, in the dedicated decantation assay buffer supplied by the manufacturer. […] The reactions were terminated by adding an equal volume of STEB buffer (40% sucrose, 100 mM Tris-HCl pH 8, 1 mM EDTA, 0.5 mg/mL bromophenol blue), followed by extraction with 1 volume of chloroform/isoamyl alcohol (24:1). Then, 20 µL of the aqueous phase of each sample was loaded onto a 1% agarose gel. Electrophoresis was conducted in Tris-acetate-EDTA buffer for 1.5 h at 80 V. Gels were stained with ethidium bromide and visualized under UV light in a transilluminator (ChemiDoc MP, Bio-Rad, Hercules, CA, USA).

S. aureus DNA gyrase = target: T2, S. aureus DNA gyrase (Staphylococcus aureus, UniProt P0A0K8+P20831); experiment: S. aureus DNA gyrase supercoiling assay; format: biochemical; settings: pBR322 supercoiling, 30 min at 37 °C
T2 construct: purchased Inspiralis, Norwich, UK
Procedure: The assay was performed using a S. aureus DNA Gyrase Supercoiling kit (Inspiralis, Norwich, UK). The activity of DNA topoisomerase II was determined by measuring the conversion of relaxed pBR322 DNA to its supercoiled form. The reaction mixture contained 500 ng of mMpBR322 plasmid DNA and 1 U of enzyme and different concentrations of the compound in a total reaction volume of 30 µL. The mixture was incubated for 30 min at 37 °C. The reactions were terminated by adding an equal volume of STEB buffer (40% sucrose, 100 mM Tris-HCl pH 8, 1 mM EDTA, 0.5 mg/mL bromophenol blue), followed by extraction with 1 volume of chloroform/isoamyl alcohol (24:1). Then, 20 µL of the aqueous phase of each sample was loaded onto a 1% agarose gel. Electrophoresis was conducted in Tris-acetate-EDTA buffer for 3 h at 50 V. Gels were stained with ethidium bromide and visualized under UV light in a transilluminator (ChemiDoc MP, Bio-Rad, Hercules, CA, USA).

SW480, SW620, and PC3 = experiment: Cytotoxicity, MTT assay, all cancer cell lines; format: cell-based, human; settings: 72 h, read-out: IC50 towards all investigated cancer cells
Procedure: as §1

T1 sequence (P0C1S7 whole entry): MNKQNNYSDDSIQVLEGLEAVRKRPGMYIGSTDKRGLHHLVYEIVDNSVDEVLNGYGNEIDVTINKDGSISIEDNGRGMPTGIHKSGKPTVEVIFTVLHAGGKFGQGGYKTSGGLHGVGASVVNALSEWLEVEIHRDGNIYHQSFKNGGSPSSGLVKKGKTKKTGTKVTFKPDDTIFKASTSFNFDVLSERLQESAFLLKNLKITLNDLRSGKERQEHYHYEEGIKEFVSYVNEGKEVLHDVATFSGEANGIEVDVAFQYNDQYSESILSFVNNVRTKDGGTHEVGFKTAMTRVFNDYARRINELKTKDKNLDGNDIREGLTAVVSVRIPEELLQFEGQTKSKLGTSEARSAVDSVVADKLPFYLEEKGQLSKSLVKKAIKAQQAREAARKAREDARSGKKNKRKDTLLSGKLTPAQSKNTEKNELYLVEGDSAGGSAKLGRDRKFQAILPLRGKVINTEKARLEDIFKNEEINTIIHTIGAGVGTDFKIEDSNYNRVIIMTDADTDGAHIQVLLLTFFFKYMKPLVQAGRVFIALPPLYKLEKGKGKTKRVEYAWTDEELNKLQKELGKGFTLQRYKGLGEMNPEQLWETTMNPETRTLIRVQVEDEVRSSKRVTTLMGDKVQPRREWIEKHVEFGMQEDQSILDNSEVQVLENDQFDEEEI
T1 sequence (P0C1U9 whole entry): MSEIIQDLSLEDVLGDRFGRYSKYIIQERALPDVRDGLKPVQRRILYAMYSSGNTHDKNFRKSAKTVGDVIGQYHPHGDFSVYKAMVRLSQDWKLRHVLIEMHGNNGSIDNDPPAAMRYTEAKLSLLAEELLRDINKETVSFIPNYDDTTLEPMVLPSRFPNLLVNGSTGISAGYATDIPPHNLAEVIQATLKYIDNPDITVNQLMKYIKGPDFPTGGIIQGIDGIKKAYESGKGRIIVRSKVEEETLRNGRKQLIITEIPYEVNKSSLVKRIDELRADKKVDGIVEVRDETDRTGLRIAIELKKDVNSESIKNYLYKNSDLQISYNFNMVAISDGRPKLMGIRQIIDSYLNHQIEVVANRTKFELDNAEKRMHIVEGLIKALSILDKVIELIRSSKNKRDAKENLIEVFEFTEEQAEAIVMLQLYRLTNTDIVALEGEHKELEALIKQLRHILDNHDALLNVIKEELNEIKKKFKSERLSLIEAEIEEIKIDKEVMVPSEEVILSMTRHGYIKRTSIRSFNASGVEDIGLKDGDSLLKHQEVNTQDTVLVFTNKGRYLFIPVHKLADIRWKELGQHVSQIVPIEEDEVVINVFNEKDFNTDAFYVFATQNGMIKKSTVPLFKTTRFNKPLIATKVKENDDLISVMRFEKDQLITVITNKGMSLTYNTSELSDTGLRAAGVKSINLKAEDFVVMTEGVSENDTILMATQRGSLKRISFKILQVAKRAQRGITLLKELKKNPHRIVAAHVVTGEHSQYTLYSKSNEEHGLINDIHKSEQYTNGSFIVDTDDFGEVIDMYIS
T2 sequence (P20831 whole entry): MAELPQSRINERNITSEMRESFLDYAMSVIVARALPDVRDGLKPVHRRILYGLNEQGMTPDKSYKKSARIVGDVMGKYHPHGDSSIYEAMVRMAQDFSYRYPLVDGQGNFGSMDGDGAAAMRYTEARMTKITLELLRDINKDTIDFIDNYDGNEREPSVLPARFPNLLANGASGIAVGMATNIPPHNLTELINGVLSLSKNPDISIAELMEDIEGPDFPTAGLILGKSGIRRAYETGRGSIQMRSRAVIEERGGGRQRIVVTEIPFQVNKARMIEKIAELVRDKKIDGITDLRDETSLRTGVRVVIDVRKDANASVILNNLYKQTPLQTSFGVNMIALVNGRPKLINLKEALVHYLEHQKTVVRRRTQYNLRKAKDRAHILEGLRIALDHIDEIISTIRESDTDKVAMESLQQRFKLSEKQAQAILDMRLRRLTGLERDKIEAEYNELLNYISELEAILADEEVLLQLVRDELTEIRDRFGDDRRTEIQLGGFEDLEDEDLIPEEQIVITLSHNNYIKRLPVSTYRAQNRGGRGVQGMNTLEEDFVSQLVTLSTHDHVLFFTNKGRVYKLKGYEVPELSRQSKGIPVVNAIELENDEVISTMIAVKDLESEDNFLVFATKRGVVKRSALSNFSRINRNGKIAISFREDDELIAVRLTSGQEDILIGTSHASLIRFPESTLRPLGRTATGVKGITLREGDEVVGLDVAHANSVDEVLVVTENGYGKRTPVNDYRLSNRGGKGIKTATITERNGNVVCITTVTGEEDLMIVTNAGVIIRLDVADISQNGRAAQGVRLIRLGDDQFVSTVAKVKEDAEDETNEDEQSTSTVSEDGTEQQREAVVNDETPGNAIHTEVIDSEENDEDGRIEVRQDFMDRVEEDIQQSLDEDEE
T2 sequence (P0A0K8 whole entry): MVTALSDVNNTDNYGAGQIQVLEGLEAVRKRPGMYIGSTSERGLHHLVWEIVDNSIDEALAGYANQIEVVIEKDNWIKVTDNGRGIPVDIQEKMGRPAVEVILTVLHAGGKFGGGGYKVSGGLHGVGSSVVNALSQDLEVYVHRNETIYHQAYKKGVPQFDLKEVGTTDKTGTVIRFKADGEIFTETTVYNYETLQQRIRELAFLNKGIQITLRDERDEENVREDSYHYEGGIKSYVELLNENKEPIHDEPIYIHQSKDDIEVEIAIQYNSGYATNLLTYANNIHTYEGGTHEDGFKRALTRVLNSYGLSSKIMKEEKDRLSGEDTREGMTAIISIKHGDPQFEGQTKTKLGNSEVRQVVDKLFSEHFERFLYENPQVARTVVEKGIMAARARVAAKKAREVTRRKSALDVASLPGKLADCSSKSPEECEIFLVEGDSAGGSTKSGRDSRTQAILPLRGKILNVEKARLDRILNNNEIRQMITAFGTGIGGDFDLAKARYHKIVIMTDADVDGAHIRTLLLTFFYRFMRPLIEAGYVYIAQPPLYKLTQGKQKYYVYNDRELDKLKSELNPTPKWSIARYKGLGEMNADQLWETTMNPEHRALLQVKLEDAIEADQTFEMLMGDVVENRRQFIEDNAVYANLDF

SMILES	IC50 [1] [µM]	MIC (S. epidermidis 423) [mg/L]	MIC (S. aureus 572) [mg/L]	MIC (S. aureus 585) [mg/L]	MIC (S. epidermidis 437) [mg/L]	MIC (S. epidermidis 515) [mg/L]	MIC (M. tuberculosis H37Rv) [mg/L]	MIC (S. aureus 537) [mg/L]	MIC (S. epidermidis 511) [mg/L]	MIC (S. aureus ATCC 29213) [mg/L]	MIC (S. aureus 573) [mg/L]	MIC [2] [mg/L]	MIC (S. aureus 567) [mg/L]	MIC (S. epidermidis 513) [mg/L]	MIC (S. aureus 522) [mg/L]	MIC (S. epidermidis 424) [mg/L]	MIC (S. epidermidis 433) [mg/L]	MIC (E. coli ATCC 25922) [mg/L]	MIC (S. epidermidis 469) [mg/L]	MIC (S. epidermidis 438) [mg/L]	also measured
FC(F)(F)c1cccc([N-]C(=S)Nc2cccc(Br)c2)c1.FC(F)(F)c1cccc([N-]C(=S)Nc2cccc(Br)c2)c1.[Cu+2] [Cu4, Copper(II) Complex with 1-(3-bromophenyl)-3-[3-(trifluoromethyl)phenyl] thiourea]	388 ± 4.4	8	8	8	8	8	4	8	8	8	8	4	8	8	8	8	8	128	8	8	MIC, staphylococcal isolates (staphylococcal isolates): 8 mg/L; MIC (S. aureus 481): 8 mg/L
CC(NC(=S)[N-]c1cccc(C(F)(F)F)c1)c1ccccc1.CC(NC(=S)[N-]c1cccc(C(F)(F)F)c1)c1ccccc1.[Cu+2] (racemic) [Cu2, Copper(II) Complex with 1-(1-phenylethyl)-3-[3-(trifluoromethyl)phenyl]thiourea]	220 ± 3.4	16	16	8	16	16	8	8	16	32	8	8	8	16	16	16	16	≥256	32	16	MIC (S. aureus 481): 16 mg/L
FC(F)(F)c1cccc([N-]C(=S)NCc2ccccc2)c1.FC(F)(F)c1cccc([N-]C(=S)NCc2ccccc2)c1.[Cu+2] [Cu3, Copper(II) Complex with 1-benzyl-3-[3-(trifluoromethyl)phenyl]thiourea]	65 ± 4.7	64	64	64	64	64	16	64	64	64	64	16	64	64	64	64	64	≥256	64	64	MIC (S. aureus 481): 64 mg/L
O.O=[N+]([O-])c1cc(NC(=S)[N-]c2cccc(C(F)(F)F)c2)ccc1Cl.O=[N+]([O-])c1cc(NC(=S)[N-]c2cccc(C(F)(F)F)c2)ccc1Cl.[Cu+2] [Cu5, Copper(II) Complex with 1-(4-chloro-3-nitrophenyl)-3-[3-(trifluoromethyl)phenyl]thiourea]	134 ± 2.9	4	2	4	2	4	4	4	4	4	2	4	2	2	2	4	2	128	4	2	IC50 ± S.E.M. for Topo IV [3]: 6.20 ± 0.50 mg/L; IC50 ± S.E.M. for Gyrase (S. aureus DNA gyrase): 16.80 ± 0.75 mg/L; IC50 (SW480, SW620, and PC3): 11.7 to 19.5 µM; MIC, staphylococcal isolates (staphylococcal isolates): 4 mg/L; MIC (S. aureus 481): 2 mg/L
FC(F)(F)c1cccc([N-]C(=S)NCCc2ccccc2)c1.FC(F)(F)c1cccc([N-]C(=S)NCCc2ccccc2)c1.O.[Cu+2] [Cu1, Copper(II) Complex with 1-(2-phenylethyl)-3-[3-(trifluoromethyl)phenyl]thiourea]	421 ± 5.2	64	64	64	64	128	16	64	128	64	64	16	64	64	64	128	64	≥256	64	128	MIC (S. aureus 481): 64 mg/L

Source: publication PMC9779606, “Synthesis, Structural Characterization and Biological Activity Evaluation of Novel Cu(II) Complexes with 3-(trifluoromethyl)phenylthiourea Derivatives” (International Journal of Molecular Sciences, 2022)
